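Results reflect a 48-hour exposure of cells in 96-well plates to compound at five concentrations. TGI is the concentration that stops growth completely.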

Consider 4 compounds from PubChem BioAssay (NCI).

Among the test systems are DMS 273 small cell lung; SNB-78 CNS; XF 498 CNS.
Holding throughout (experiment): DTP human tumour cell line panel, 48 h

Broadly, the TGI is the concentration giving total growth inhibition. Consider `CCOC(=O)C(=O)NCCCN1CCOCC1`, for which the concentration for total growth inhibition (TGI) in the experiment on DMS 273 small cell lung, in the experiment with SNB-78 CNS and in the experiment on XF 498 CNS was more than 100 µM each time.

Turning to `COc1ccc(C2c3cc4c(cc3OC(O)(CO)C2C(=O)O)OCO4)cc1` (configuration not stated) (tested in a mixture with another compound), the figures for the TGI in the experiment on DMS 273 small cell lung, in the experiment with SNB-78 CNS and with XF 498 CNS were 17.7 µM, 59 µM and 16.6 µM, respectively.

Regarding `CC(=O)Oc1ccc(CO)cc1OC(C)=O`, the TGI in the experiment on DMS 273 small cell lung, with SNB-78 CNS and with XF 498 CNS was more than 100 µM each time.

Consider `Cc1ccccc1NC(=O)CC(=O)N1N=C(N2c3ccccc3Sc3ccccc32)CC1c1ccccc1` (configuration not stated), for which the total growth inhibition concentration (TGI) with DMS 273 small cell lung, in the experiment with SNB-78 CNS and in the experiment with XF 498 CNS was more than 100 µM throughout.
